Like-named read-outs stand apart in the source and are kept apart here.
Key:
gel-filtered platelets = experiment: In vitro inhibition of thrombin-induced gel-filtered platelet aggregation; assay type: cell-based; conditions: human gel-filtered platelets, agonist thrombin 50 μL of 1 unit/mL, read-out: Thrmb IC50 (Thrombin-induced aggregation of gel-filtered platelets)
Method: In Vitro Inhibition of Thrombin-Induced Gel-Filtered Platelet Aggregation Assay
The percentage of platelet aggregation is calculated as an increase in light transmission of compound-treated platelet concentrate vs. control-treated platelet concentrate. Human blood is obtained from drug free, normal donors in tubes containing 0.13M sodium citrate. Platelet rich plasma (PRP) is collected by centrifugation of whole blood at 200×g for 10 min at 25° C. The PRP (5 mL) is gel filtered through Sepharose 2B (bed volume 50 mL), and the platelet count is adjusted to 2×10^7 platelets per sample. The following constituents are added to a siliconized cuvette: concentrated platelet filtrate and Tyrode's buffer (0.14M NaCl, 0.0027M KCl, 0.012M NaHCO3, 0.76 mM Na2HPO4, 0.0055M glucose, 2 mg/mL BSA and 5.0 mM HEPES @ pH 7.4) in an amount equal to 350 μL 50 μL of 20 mM calcium and 50 μL of the test compound. Aggregation is monitored in a BIODATA aggregometer for the 3 min following the addition of agonist (thrombin 50 μL of 1 unit/mL).
(§1) Table 7 contains IC50 values (μM) of the compounds in a thrombin receptor binding assay, and IC50 values (μM) against platelet aggregation stimulated by thrombin.

[1] = target: T1, thrombin receptor (PAR-1) (Homo sapiens, UniProt P25116); experiment: In vitro thrombin receptor binding assay (CHRF membranes); conditions: tritiated 721-40 radioligand, read-out: Bndg IC50 (Thrombin receptor binding)
T1 construct: CHRF membranes (Jones, Biochim. Biophys. Acta 1992, 1136, 272) are thawed from −70° C; endogenous in cells; host or cells: CHRF cell membranes
T1 sequence (P25116 22-425): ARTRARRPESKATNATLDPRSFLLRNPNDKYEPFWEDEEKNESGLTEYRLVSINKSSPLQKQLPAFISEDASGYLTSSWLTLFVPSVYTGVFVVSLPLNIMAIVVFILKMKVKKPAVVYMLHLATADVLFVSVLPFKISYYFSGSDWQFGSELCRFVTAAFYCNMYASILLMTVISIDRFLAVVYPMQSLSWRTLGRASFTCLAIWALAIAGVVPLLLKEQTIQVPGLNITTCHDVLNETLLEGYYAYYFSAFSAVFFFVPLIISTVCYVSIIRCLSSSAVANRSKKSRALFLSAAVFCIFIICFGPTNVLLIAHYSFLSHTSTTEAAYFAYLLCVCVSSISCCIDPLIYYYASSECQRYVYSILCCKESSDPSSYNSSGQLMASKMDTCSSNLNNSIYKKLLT
Method: In Vitro Thrombin Receptor Binding Assay
CHRF membranes (Jones, Biochim. Biophys. Acta 1992, 1136, 272) are thawed from −70° C., centrifuged at maximum speed for 5 min, washed twice with binding buffer (50 mM HEPES containing 5 mM MgCl2 and 0.1% BSA), and re-suspended in binding buffer (25 μg/[…]). 100 μL of membranes are added to the 24-Wallac plates and delivered to the Tomtech apparatus. In a typical experiment, 6 μL of samples (from a 125 μg/mL intermediary plate, 20% DMSO) and 44 μL buffer are delivered to the plates (final conc. of compounds is 3.7 μg/mL, 0.6% DMSO). Similarly, 6 μL 20% DMSO and 44 μL buffer are delivered to both column 1 (NSB) and column 12 (TB). 10 μL Ser-pFPhe-Har-Leu-Har-Lys-Tyr-NH2 (721–40; 500 μM in deionized water) is added to column 1. 50 μL tritiated 721–40 (specific activity 46 Ci/mmol) is added to all the wells. The plates are mixed well for 20 seconds, incubated for 30 min,and then harvested with 10 mM HEPES/138 mM NaCl using the Skatron harvester. The filters (GF/C Brandel FPXLR 296) are presoaked 3 h in 0.5% polyethylenimine in HEPES/0.1M N-acetylglucosamine) are set in saran wrap and dried for 3 min in the microwave, and placed in sample bags (Wallac 1450-432). 4.5 mL scintillation fluid (Wallac, Betaplate Scint 1205-440) is added. The bags are sealed, placed in filter cassettes (Wallac 1450-104), and analyzed on the microbeta counter.
as §1

Row | Structure (SMILES) | IC50 (gel-filtered platelets; Platelet) [µM] | IC50 [1] [µM] | IC50 (gel-filtered platelets) [µM]
1 | COc1ccc(C[C@H](NC(=O)Nc2ccc3c(CN4CCCC4)cn(Cc4ccc(F)cc4)c3c2)C(=O)N[C@@H](CCCNC(=N)N)C(=O)NCc2ccccc2)cc1 [Compound 1] | 0.83 | 0.6 | –
2 | COc1ccc(C[C@H](NC(=O)Nc2ccc3c(CN4CCCC4)cn(Cc4ccc(C)cc4)c3c2)C(=O)N[C@@H](CCCN=C(N)N)C(=O)NCc2ccccc2)cc1 [Compound 2] | 7.8 | 33.6 | –
3 | COc1ccc(C[C@H](NC(=O)Nc2ccc3c(CNC4CCCC4)cn(Cc4ccc(F)cc4)c3c2)C(=O)N[C@@H](CCCNC(=N)N)C(=O)NCc2ccccc2)cc1 [Compound 3] | 21.4 | 10.7 | –
4 | COc1ccc(C[C@H](NC(=O)Nc2ccc3c(CN4CCCC4)cn(Cc4ccc(F)cc4)c3c2)C(=O)N[C@@H](CCCNC(=N)N)C(=O)NCCCc2ccccc2)cc1 [Compound 4] | 14.7 | 1.3 | –
5 | CCN(CC)Cc1cn(Cc2ccc(F)cc2)c2cc(NC(=O)N[C@@H](Cc3ccc(OC)cc3)C(=O)N[C@@H](CCCNC(=N)N)C(=O)NCCCc3ccccc3)ccc12 [Compound 5] | 2.9 | 1.8 | –
6 | COc1ccc(C[C@H](NC(=O)Nc2ccc3c(CN4CCCC4)cn(Cc4cccc(F)c4)c3c2)C(=O)N[C@@H](CCCNC(=N)N)C(=O)NCc2ccccc2)cc1 [Compound 6] | 3.5 | 6.6 | –
7 | COc1ccc(C[C@H](NC(=O)Nc2ccc3c(CN4CCCC4)cn(Cc4ccccc4F)c3c2)C(=O)N[C@@H](CCCNC(=N)N)C(=O)NCc2ccccc2)cc1 [Compound 7] | 1.31 | 3.6 | –
8 | COc1ccc(C[C@H](NC(=O)Nc2ccc3c(CN4CCCCC4)cn(Cc4ccc(F)cc4)c3c2)C(=O)N[C@@H](CCCNC(=N)N)C(=O)NCC2CCCCC2)cc1 [Compound 8] | 8 | 2.3 | –
9 | COc1ccc(C[C@H](NC(=O)Nc2ccc3c(CN4CCCC4)cn(Cc4cccc(C)c4)c3c2)C(=O)N[C@@H](CCCNC(=N)N)C(=O)NCC2CCCCC2)cc1 [Compound 9] | 2.5 | 10.4 | –
10 | COC(=O)c1ccc(Cn2cc(CN3CCCCC3)c3ccc(NC(=O)N[C@@H](Cc4ccc(OC)cc4)C(=O)N[C@@H](CCCN=C(N)N)C(=O)NCC4CCCCC4)cc32)cc1 [Compound 10] | > 10 | 4.8 | –
11 | COc1ccc(C[C@H](NC(=O)Nc2ccc3c(CN4CCCC4)cn(Cc4ccc(OC(F)(F)F)cc4)c3c2)C(=O)N[C@@H](CCCNC(=N)N)C(=O)NCC2CCCCC2)cc1 [Compound 11] | – | 2.5 | 19.9
12 | COc1ccc(C[C@H](NC(=O)Nc2ccc3c(CN4CCCC4)cn(Cc4ccc(S(C)(=O)=O)cc4)c3c2)C(=O)N[C@@H](CCCNC(=N)N)C(=O)NCc2ccccc2)cc1 [Compound 12] | 43.2 | 15.9 | –
13 | COc1ccc(C[C@H](NC(=O)Nc2ccc3c(CN4CCCC4)cn(Cc4ccc(C#N)cc4)c3c2)C(=O)N[C@@H](CCCNC(=N)N)C(=O)NCc2ccccc2)cc1 [Compound 13] | 16.2 | 4.5 | –
14 | COc1ccc(C[C@H](NC(=O)Nc2ccc3c(CN4CCCC4)cn(Cc4c(Cl)cccc4Cl)c3c2)C(=O)N[C@@H](CCCNC(=N)N)C(=O)NCc2ccccc2)cc1 [Compound 14] | 0.49 | 1.4 | –
15 | COc1ccc(C[C@H](NC(=O)Nc2ccc3c(CN4CCCC4)cn(Cc4ccc5ccccc5c4)c3c2)C(=O)N[C@@H](CCCNC(=N)N)C(=O)NCc2ccccc2)cc1 [Compound 15] | 11.8 | 4.3 | –
16 | COc1ccc(C[C@H](NC(=O)Nc2ccc3c(CN4CCCC4)cn(Cc4cccc(OC)c4)c3c2)C(=O)N[C@@H](CCCNC(=N)N)C(=O)NCc2ccccc2)cc1 [Compound 16] | 25.8 | 11.5 | –

Row | Structure (SMILES) | IC50 (gel-filtered platelets; Platelet) [µM] | IC50 [1] [µM] | IC50 (gel-filtered platelets) [µM]
17 | COc1ccc(C[C@H](NC(=O)Nc2ccc3c(CN4CCCC4)cn(Cc4ccccc4C)c3c2)C(=O)N[C@@H](CCCNC(=N)N)C(=O)NCc2ccccc2)cc1 [Compound 17] | 0.42 | 0.97 | –
18 | COc1ccc(C[C@H](NC(=O)Nc2ccc3c(CN4CCCC4)cn(Cc4ccc(C(F)(F)F)cc4)c3c2)C(=O)N[C@@H](CCCNC(=N)N)C(=O)NCc2ccccc2)cc1 [Compound 18] | 14 | 3.7 | –
19 | COc1ccc(C[C@H](NC(=O)Nc2ccc3c(CN4CCCC4)cn(Cc4ccc(Cl)cc4)c3c2)C(=O)N[C@@H](CCCNC(=N)N)C(=O)NCc2ccccc2)cc1 [Compound 19] | 3.2 | 1.6 | –
20 | COc1ccc(C[C@H](NC(=O)Nc2ccc3c(CN4CCCC4)cn(Cc4ccc(OC)cc4)c3c2)C(=O)N[C@@H](CCCNC(=N)N)C(=O)NCc2ccccc2)cc1 [Compound 20] | 26.6 | 17.1 | –
21 | COc1ccc(C[C@H](NC(=O)Nc2ccc3c(CN4CCCC4)cn(Cc4ccc(F)c(F)c4)c3c2)C(=O)N[C@@H](CCCNC(=N)N)C(=O)NCc2ccccc2)cc1 [Compound 21] | 3.2 | 1.1 | –
22 | COc1ccc(C[C@H](NC(=O)Nc2ccc3c(CN4CCCC4)cn(Cc4ccccc4)c3c2)C(=O)N[C@@H](CCCNC(=N)N)C(=O)NCc2ccccc2)cc1 [Compound 22] | 3 | 4 | –
23 | COc1ccc(C[C@H](NC(=O)Nc2ccc3c(CN4CCCC4)cn(Cc4ccc(I)cc4)c3c2)C(=O)N[C@@H](CCCNC(=N)N)C(=O)NCc2ccccc2)cc1 [Compound 23] | 8.6 | 3.1 | –
24 | N=C(N)NCCC[C@H](NC(=O)[C@H](Cc1ccncc1)NC(=O)Nc1ccc2c(CN3CCCC3)cn(Cc3ccc(F)cc3)c2c1)C(=O)NCc1ccccc1 [Compound 24] | 34.8 | 4.8 | –
25 | N=C(N)NCCC[C@H](NC(=O)[C@H](CC1CCCCC1)NC(=O)Nc1ccc2c(CN3CCCC3)cn(Cc3ccc(F)cc3)c2c1)C(=O)NCc1ccccc1 [Compound 25] | – | – | 37.1
26 | N=C(N)NCCC[C@H](NC(=O)[C@H](Cc1ccc(F)cc1)NC(=O)Nc1ccc2c(CN3CCCC3)cn(Cc3ccc(F)cc3)c2c1)C(=O)NCc1ccccc1 [Compound 26] | 0.55 | 4.3 | –
27 | NC(N)=NCCC[C@H](NC(=O)[C@H](CCc1ccccc1)NC(=O)Nc1ccc2c(CN3CCCC3)cn(Cc3ccc(F)cc3)c2c1)C(=O)NCc1ccccc1 [Compound 27] | 27.3 | 14.6 | –
28 | N=C(N)NCCC[C@H](NC(=O)[C@H](Cc1cccs1)NC(=O)Nc1ccc2c(CN3CCCC3)cn(Cc3ccc(F)cc3)c2c1)C(=O)NCc1ccccc1 [Compound 28] | 13.8 | 4.1 | –
29 | Cc1ccccc1Cn1cc(CN2CCCC2)c2ccc(NC(=O)N[C@H](C(=O)N[C@@H](CCCNC(=N)N)C(=O)NCc3ccccc3)c3ccccc3)cc21 [Compound 29] | > 10 | 8.4 | –
30 | N=C(N)NCCC[C@H](NC(=O)[C@@H]1Cc2ccccc2CN1C(=O)Nc1ccc2c(CN3CCCC3)cn(Cc3ccc(F)cc3)c2c1)C(=O)NCc1ccccc1 [Compound 30] | > 10 | 9 | –
31 | COC(=O)C(NC(=O)C(CCN)NC(=O)C(Cc1ccc(F)c(F)c1)NC(=O)Nc1ccc2c(CN3CCCC3)cn(Cc3c(Cl)cccc3Cl)c2c1)c1ccccc1 (stereo not shown) [Compound 160] | – | – | 0.6
32 | NCCC(NC(=O)C(Cc1ccc(F)c(F)c1)NC(=O)Nc1ccc2c(CN3CCCC3)cn(Cc3c(Cl)cccc3Cl)c2c1)C(=O)NC(CO)c1ccccc1 (stereo not shown) [Compound 161] | – | – | 0.52

— patent US7183252B2, “Indole peptidomimetics as thrombin receptor antagonists” (Ortho-McNeil Pharmaceutical, Inc., priority 1999, dated 2007)
